Data published in ChEMBL document CHEMBL5608163, “Structure modification of anoplin for fighting resistant bacteria” (Eur J Med Chem, 2024).
≈ marks a conversion by molar mass, not a printed value. Numbered stars: 1 amine (or outer) side, 2 acyl side, 3 side chain; on linkers, the order of the positions; unused ones are H or OH. Square brackets hold non-standard residues; d marks the D form. Peptide text beside a SMILES is read from it. * marks the point of attachment. X3 = O=C(CN(CC(c1ccccc1)c1ccccc1)[*:1])[*:2]; Pentadecanoyl = CCCCCCCCCCCCCCC(=O)*; NMeR = CN[C@@H](CCCNC(=N)N)C(=O)O; X2 = CCC(C)N(CC(=O)[*:2])[*:1]; NMeK = CN[C@@H](CCCCN)C(=O)O; Nphe = O=C(O)CNCc1ccccc1; Nleu = CC(C)CNCC(=O)O

Columns and labels:
Escherichia coli [1] = assay: Antibacterial activity against Escherichia coli ATCC 25922 assessed as reduction in bacterial growth measured after 24 hrs by Mueller-Hinton broth based two-fold serial dilution method; format: functional
Staphylococcus aureus [2] = assay: Antibacterial activity against Staphylococcus aureus ATCC 25923 assessed as reduction in bacterial growth measured after 24 hrs by Mueller-Hinton broth based two-fold serial dilution method; format: functional
[3] = Hemolytic activity in mouse erythrocyte incubated for 1 hr by microplate reader analysis; format: toxicity, cell-based; details: erythrocytes
Staphylococcus aureus [4] = assay: Antibacterial activity against Staphylococcus aureus ATCC 25923 assessed as reduction in bacterial cell growth measured for 18 hrs by Mueller-Hinton broth based two-fold serial dilution method; format: functional
Escherichia coli [5] = assay: Antibacterial activity against Escherichia coli ATCC 25922 assessed as reduction in bacterial cell growth measured for 18 hrs by Mueller-Hinton broth based two-fold serial dilution method; format: functional
Pseudomonas aeruginosa = assay: Antibacterial activity against Pseudomonas aeruginosa ATCC 27853 assessed as reduction in bacterial cell growth measured for 18 hrs by Mueller-Hinton broth based two-fold serial dilution method; format: functional
Bacillus subtilis = assay: Antibacterial activity against Bacillus subtilis ATCC 23857 assessed as reduction in bacterial cell growth measured for 18 hrs by Mueller-Hinton broth based two-fold serial dilution method; format: functional
[6] = Hemolytic activity in mouse Red blood cells incubated for 1 hr by microplate reader assay; format: toxicity, cell-based, Erythrocyte; details: red blood cells
Klebsiella pneumoniae = assay: Antibacterial activity against Klebsiella pneumoniae ATCC 700603 assessed as reduction in bacterial cell growth measured for 18 hrs by Mueller-Hinton broth based two-fold serial dilution method; format: functional
Staphylococcus aureus [7] = assay: Antimicrobial activity against Staphylococcus aureus assessed as reduction in microbial growth by broth microdilution method; format: functional
Escherichia coli [8] = assay: Antimicrobial activity against Escherichia coli assessed as reduction in microbial growth by broth micro-dilution method; format: functional
Erythrocyte = assay: Hemolytic activity in mouse RBC; format: toxicity, cell-based

Structure (SMILES)	MIC (Escherichia coli [1])	MIC (Staphylococcus aureus [2])	MIC (Staphylococcus aureus [7])	MIC (Escherichia coli [8])	HC10 (Erythrocyte)	also measured
CC[C@H](C)[C@H](NC(=O)[C@H](CCCNC(=N)N)NC(=O)[C@H](CCCCN)NC(=O)[C@H](CC(C)C)NC(=O)[C@H](CC(C)C)NC(=O)CN)C(=O)N[C@@H](CCCCN)C(=O)N[C@H](C(=O)N[C@@H](CC(C)C)C(=O)N[C@@H](CC(C)C)C(=O)O)[C@@H](C)O (H-GLLKRIKTLL-OH)	41.4 µM (≈ 47.8 µg/mL)	> 41.4 µM	–	–	–	–
CCCCCCCCCCCCCCC(=O)NCC(=O)N[C@@H](CC(C)C)C(=O)N[C@@H](CC(C)C)C(=O)N(C)[C@@H](CCCCN)C(=O)N[C@@H](CCCNC(=N)N)C(=O)N[C@H](C(=O)N(C)[C@@H](CCCCN)C(=O)N[C@H](C(=O)N[C@@H](CC(C)C)C(=O)N[C@@H](CC(C)C)C(N)=O)[C@@H](C)O)[C@@H](C)CC (Pentadecanoyl-GLL[NMeK]RI[NMeK]TLL-NH2)	–	–	–	–	–	HC50 at 1 h [3]: 64 µM; MIC (Staphylococcus aureus [4]): 8 µM (≈ 11.2 µg/mL); MIC (Escherichia coli [5]): 16 µM (≈ 22.5 µg/mL); MIC (Pseudomonas aeruginosa): 16 µM (≈ 22.5 µg/mL); MIC (Bacillus subtilis): 8 µM (≈ 11.2 µg/mL); HC50 at 1 h [6]: 64 µM; MIC (Klebsiella pneumoniae): 32 µM (≈ 45 µg/mL)
CC[C@H](C)[C@H](NC(=O)[C@H](CCCNC(=N)N)NC(=O)[C@H](CCCCN)NC(=O)[C@H](CC(C)C)NC(=O)[C@H](CC(C)C)NC(=O)CNCC(C)C)C(=O)N[C@@H](CCCCN)C(=O)N[C@H](C(=O)N[C@@H](CC(C)C)C(=O)N[C@@H](CC(C)C)C(N)=O)[C@@H](C)O (H-[Nleu]LLKRIKTLL-NH2)	–	–	> 100 µM	> 100 µM	> 50 µM	–
CC[C@H](C)[C@H](NC(=O)[C@H](CCCNC(=N)N)NC(=O)[C@H](CCCCN)NC(=O)[C@H](CC(C)C)NC(=O)[C@H](CC(C)C)NC(=O)CNCc1ccccc1)C(=O)N[C@@H](CCCCN)C(=O)N[C@H](C(=O)N[C@@H](CC(C)C)C(=O)N[C@@H](CC(C)C)C(N)=O)[C@@H](C)O (H-[Nphe]LLKRIKTLL-NH2)	–	–	> 100 µM	50 µM	> 50 µM	–
CC[C@H](C)[C@H](NC(=O)[C@H](CCCNC(=N)N)NC(=O)[C@H](CCCCN)NC(=O)[C@H](CC(C)C)NC(=O)[C@H](CC(C)C)NC(=O)CN)C(N)=O (H-GLLKRI-NH2)	54.6 µM (≈ 38.1 µg/mL)	> 54.6 µM	–	–	–	–
CC[C@H](C)[C@H](NC(=O)[C@H](CCCNC(=N)N)NC(=O)[C@H](CCCCN)NC(=O)[C@@H](N)CC(C)C)C(=O)N[C@@H](CCCCN)C(=O)N[C@H](C(=O)N[C@@H](CC(C)C)C(=O)N[C@@H](CC(C)C)C(N)=O)[C@@H](C)O (H-LKRIKTLL-NH2)	31.6 µM (≈ 31 µg/mL)	> 31.6 µM	–	–	–	–
CCCCCCCCCCCCCCC(=O)NCC(=O)N[C@@H](CC(C)C)C(=O)N[C@@H](CC(C)C)C(=O)N[C@@H](CCCCN)C(=O)N(C)[C@@H](CCCNC(=N)N)C(=O)N[C@H](C(=O)N(C)[C@@H](CCCCN)C(=O)N[C@H](C(=O)N[C@@H](CC(C)C)C(=O)N[C@@H](CC(C)C)C(N)=O)[C@@H](C)O)[C@@H](C)CC (Pentadecanoyl-GLLK[NMeR]I[NMeK]TLL-NH2)	–	–	–	–	–	HC50 at 1 h [3]: 64 µM; MIC (Staphylococcus aureus [4]): 16 µM (≈ 22.5 µg/mL); MIC (Escherichia coli [5]): 16 µM (≈ 22.5 µg/mL); MIC (Pseudomonas aeruginosa): 16 µM (≈ 22.5 µg/mL); MIC (Bacillus subtilis): 8 µM (≈ 11.2 µg/mL); HC50 at 1 h [6]: 64 µM; MIC (Klebsiella pneumoniae): 32 µM (≈ 45 µg/mL)
CC[C@H](C)[C@H](NC(=O)[C@H](CCCNC(=N)N)NC(=O)[C@H](CCCCN)NC(=O)[C@H](CC(C)C)NC(=O)[C@H](CC(C)C)NC(=O)CN)C(=O)N[C@@H](CCCCN)C(=O)N[C@H](C(N)=O)[C@@H](C)O (H-GLLKRIKT-NH2)	24.8 µM (≈ 23 µg/mL)	> 24.8 µM	–	–	–	–
CC[C@H](C)[C@H](NC(=O)[C@H](CCCNC(=N)N)NC(=O)[C@H](CCCCN)NC(=O)[C@H](CC(C)C)NC(=O)[C@H](CC(C)C)NC(=O)CN)C(=O)N[C@@H](CCCCN)C(N)=O (H-GLLKRIK-NH2)	33.9 µM (≈ 28 µg/mL)	> 33.9 µM	–	–	–	–
CC[C@H](C)[C@H](NC(=O)[C@H](CCCNC(=N)N)NC(=O)[C@H](CCCCN)NC(=O)[C@H](CC(C)C)NC(=O)[C@H](CC(C)C)NC(=O)CNCC(c1ccccc1)c1ccccc1)C(=O)N[C@@H](CCCCN)C(=O)N[C@H](C(=O)N[C@@H](CC(C)C)C(=O)N[C@@H](CC(C)C)C(N)=O)[C@@H](C)O (H-[X3]LLKRIKTLL-NH2)	–	–	25 µM	12.5 µM	> 50 µM	–
CCC(C)NCC(=O)N[C@@H](CC(C)C)C(=O)N[C@@H](CC(C)C)C(=O)N[C@@H](CCCCN)C(=O)N[C@@H](CCCNC(=N)N)C(=O)N[C@H](C(=O)N[C@@H](CCCCN)C(=O)N[C@H](C(=O)N[C@@H](CC(C)C)C(=O)N[C@@H](CC(C)C)C(N)=O)[C@@H](C)O)[C@@H](C)CC (stereo partly specified) (H-[X2]LLKRIKTLL-NH2)	–	–	> 100 µM	> 100 µM	> 50 µM	–
